From ChEMBL document CHEMBL1201862, “PubChem BioAssay data set” (2004) come the findings set out here.

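Test compounds were applied to cells in 96-well plates for 48 hours at 5 doses. The concentration for 50% growth inhibition is given as GI50.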 The source made the active and inactive calls. No stated cut-off is given here; in the data, active = GI50 up to about 1.1 µM and inactive = higher.

Holding throughout (experiment): NCI tumour cell line growth inhibition, 48 h
Test [1] concerns SF-268.
Test [2] relates to T47D.
Test [3] concerns SK-MEL-2.
Test [4] deals with A498.
In test [5] the test system is CCRF-CEM.
For test [6], the system named is UACC-257.
Test [7] relates to RPMI-8226.
Test [8] relates to MOLT-4.
The test system of test [9] is BT-549.
Test [10] concerns U-251.
The test system of test [11] is NCI-H226.
Test [12] has as its system MDA-MB-231.
The subject of test [13] is 786-0.
The subject of test [14] is SK-MEL-5.
The subject of test [15] is COLO 205.
Test [16] has as its system NCI/ADR-RES.
The subject of test [17] is SW-620.
Test [18] concerns OVCAR-4.
Test [19] deals with IGROV-1.
Test [20] relates to CAKI-1.

As for `CCCCOC(=O)NC(Nc1ccc(S(N)(=O)=O)cc1)(C(F)(F)F)C(F)(F)F`, the GI50 in test [1], in [2], in test [3], in test [4], in test [5] and in [6] was > 100 µM (inactive) each time. Further, the GI50 in test [7], in [8], in test [9], in test [10], in test [11] and in test [12] was > 100 µM (inactive) in each case.

As for `COc1ccc(N2C(=O)c3c4c(c5c([nH]c6ncccc65)c3C2=O)CCC(C(C)(C)C)C4)cc1` (configuration not stated), the GI50 is 72.6 µM (inactive) in test [1]; > 100 µM (inactive) in test [2]; 35.6 µM (inactive) in test [13]; > 100 µM (inactive) in test [5]; > 100 µM (inactive) in test [14]; > 100 µM (inactive) in [15]. The GI50 in test [16] is > 100 µM (inactive); in test [6], > 100 µM (inactive); in test [17], > 100 µM (inactive); in [7] it was > 100 µM (inactive); in test [8], > 10 µM (inactive); in [18], > 100 µM (inactive). For the same compound, the GI50 in test [9] was 84.9 µM (inactive); in test [10], 31 µM (inactive); in test [11], > 100 µM (inactive); in test [19] it was > 100 µM (inactive); in [12], > 100 µM (inactive).

Take `COc1ccc2cc(/C=N\NC(=O)Nc3cccc4ccccc34)ccc2c1`: the GI50 was 52.6 µM (inactive) in test [1]; 25.7 µM (inactive) in test [3]; 12.9 µM (inactive) in [13]; 17.5 µM (inactive) in [4]; 21.3 µM (inactive) in test [5]; 37.3 µM (inactive) in test [14]. The GI50 in test [15] is 46.7 µM (inactive); in [16] it was > 100 µM (inactive); in test [6], 32.4 µM (inactive); in [17] it was 74 µM (inactive); in [8] it was 34.1 µM (inactive); in test [18], 14.5 µM (inactive). In addition, the GI50 in [20] is 23.8 µM (inactive); in test [9] it was 49.4 µM (inactive); in test [10], 16.4 µM (inactive); in test [11], 28.2 µM (inactive); in test [19], 66.1 µM (inactive); in [12] it was 27 µM (inactive).

`CC(C)CCNC(=O)c1ccc(CNC(=O)/C=C/c2ccc(OCc3ccccc3)cc2)cc1`: the GI50 in test [1], in [2], in [3], in test [13], in [4] and in test [5] was > 100 µM (inactive) each time. For the same compound, the GI50 in test [14], in test [15], in test [16], in test [6], in test [17] and in test [7] was > 100 µM (inactive) each time. Moreover, the GI50 was > 100 µM (inactive) in test [8]; > 100 µM (inactive) in test [18]; > 100 µM (inactive) in test [20]; > 100 µM (inactive) in test [10]; 39.9 µM (inactive) in test [11]; > 100 µM (inactive) in [12].

As to `CCOC(=O)/C(=N/Nc1ccccc1)N1C(=S)N(C)N=C(C)C=C1S`, the GI50 in test [1] is 6.82 µM (inactive); in [2] it was 44.2 µM (inactive); in [3] it was > 100 µM (inactive); in [5], > 100 µM (inactive); in [14], > 100 µM (inactive); in test [15] it was > 100 µM (inactive). For the same compound, the GI50 in [16], in test [6], in test [17], in test [7], in test [8] and in [18] was > 100 µM (inactive) throughout. The GI50 in test [20] was > 100 µM (inactive); in test [9], 76.9 µM (inactive); in test [10], 20 µM (inactive); in [19] it was > 100 µM (inactive); in test [12], 43.9 µM (inactive).

Consider `OC1CSCCSCCCSCCSC1`, for which the GI50 in [1], in test [2], in test [3], in test [13], in test [4] and in test [14] was > 100 µM (inactive) each time. The GI50 in test [15], in test [6], in test [17], in test [7], in [8] and in test [18] was > 100 µM (inactive) each time. Besides, the GI50 in test [20], in test [9], in test [10], in [11], in test [19] and in [12] was > 100 µM (inactive) throughout.

`Cc1ccc(S(=O)(=O)NCCSCCNS(=O)(=O)c2ccc(C)cc2)cc1`: the GI50 in [1], in test [2], in [4], in test [5], in test [14] and in test [15] was > 100 µM (inactive) in each case. Also, the GI50 in [16], in test [6], in [17], in [8], in [18] and in [10] was > 100 µM (inactive) in each case. For the same compound, the GI50 in test [11] and in test [12] was > 100 µM (inactive) each time.

Regarding `CC(C)OP(=O)(OC(C)C)c1ccc2c(c1)OCCOCCOCCOCCO2`, the GI50 in test [1], in test [2], in test [13], in test [4], in test [5] and in test [14] was > 100 µM (inactive) each time. Besides, the GI50 in test [15], in [6], in test [17], in [7], in test [8] and in test [20] was > 100 µM (inactive) each time. In addition, the GI50 in [9], in [11], in test [19] and in test [12] was > 100 µM (inactive) each time.

For `CN1CCc2c(sc3nc(S)nc(S)c23)C1`, the GI50 in test [1], in test [2], in test [3], in test [13], in [5] and in test [14] was > 100 µM (inactive) each time. Further, the GI50 in test [15], in test [16], in test [6], in [17], in [7] and in [8] was > 100 µM (inactive) in each case. Moreover, the GI50 was > 100 µM (inactive) in test [18]; > 100 µM (inactive) in [20]; > 100 µM (inactive) in test [9]; 72.4 µM (inactive) in test [10]; > 100 µM (inactive) in test [11]; > 100 µM (inactive) in test [19]. In addition, the GI50 in test [12] is 39.5 µM (inactive).

For the compound `COCCOc1nc(-c2ccccc2)nc2ccccc12`, the GI50 in [1] is 27.7 µM (inactive); in test [2], 27.7 µM (inactive); in [3] it was 51.8 µM (inactive); in test [4], 15 µM (inactive); in [14], 25.8 µM (inactive); in test [15], 32.6 µM (inactive). For the same compound, the GI50 in [16] was 32.6 µM (inactive); in test [6] it was > 100 µM (inactive); in test [17], 34 µM (inactive); in test [7], 15.7 µM (inactive); in test [8], 20.6 µM (inactive); in test [18], 37.3 µM (inactive). Further, the GI50 was 34.7 µM (inactive) in test [20]; 35.9 µM (inactive) in [9]; 45.8 µM (inactive) in [10]; 98.2 µM (inactive) in test [19]; 31 µM (inactive) in [12].

As to `CC1(C)C[C@H]2C=C(C=O)[C@]34C[C@]3(C(=O)OC4O)[C@H]2C1` (some centres not stated), the GI50 in test [1] was 1.61 µM (inactive); in test [2], 0.459 µM (active); in test [3] it was 1.72 µM (inactive); in test [4], 3.06 µM (inactive); in [5], 0.813 µM (active); in [14], 1.63 µM (inactive). The GI50 was 0.374 µM (active) in test [15]; 2.11 µM (inactive) in [6]; 3.92 µM (inactive) in test [17]; 4.54 µM (inactive) in test [7]; 1.53 µM (inactive) in test [8]; 2.55 µM (inactive) in test [18]. For the same compound, the GI50 in test [20] was 1.59 µM (inactive); in test [9], 1.97 µM (inactive); in test [10] it was 8.77 µM (inactive); in test [11], 6.61 µM (inactive); in test [19], 3.05 µM (inactive); in test [12] it was 1.48 µM (inactive).

For `C=CCOCC1C2CCC3(OCCO3)C21` (configuration not stated), the GI50 in test [1] was > 100 µM (inactive); in [3], > 100 µM (inactive); in test [13], > 100 µM (inactive); in [5], 99.5 µM (inactive); in test [14], > 100 µM (inactive); in test [15], > 100 µM (inactive). Besides, the GI50 in test [16], in [6], in test [17], in test [7], in test [8] and in [18] was > 100 µM (inactive) in each case. Besides, the GI50 in test [20] was 30.4 µM (inactive); in [9], > 100 µM (inactive); in [10], > 100 µM (inactive); in [11], > 100 µM (inactive); in [19], > 100 µM (inactive); in test [12], > 100 µM (inactive).
